Source: PubChem BioAssay AID179 (DTP/NCI, 2004)
Activity calls are given as the source filed them.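 How the source made its calls: active means compounds giving half or more protection of infected cells from virus-caused growth loss, again on retest; inactive means the rest.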 *1 amine or outer side, *2 acyl side, *3 side chain or, on linkers, in order; H or OH if unused. Where a SMILES comes first, the peptide text is derived from it. [ ]: non-standard residue; d: D form. The star is where a group is joined. ξ: configuration not given here. X1 = O=C(C1=CN(Cc2ccccc2)C=CC1N[*:1])[*:2]; ξF = NC(Cc1ccccc1)C(=O)O; Cbz = O=C(OCc1ccccc1)*

Tested on: CEM cells HIV-1 protection, formazan growth assay
Assay: NCI AIDS Antiviral Assay
Conditions: for IC50: measured here: growth of uninfected CEM cells
Method in brief: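 Soluble formazan readout of cell growth; CEM cells ± HIV-1; 5 drug concs. ≥50% protection → retest; ≥50% again = moderately active; reproducible 100% = confirmed active.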

SMILES | EC50 | IC50 | outcome
O=C1C=Cc2c(Cl)sc(Cl)c21 | > 200 µM | 0.794 µM | –
CCCCNc1nc(NC2OCC(OC(C)=O)C(OC(C)=O)C2OC(C)=O)c(N=O)c(=O)n1C (centres undefined) | > 200 µM | > 200 µM | –
CC1NC(=O)C(C(C)C)NC(=O)C2=CN(Cc3ccccc3)C=CC2NC(=O)C(C)NC(=O)C(C(C)C)NC(=O)C2=CN(Cc3ccccc3)C=CC2NC1=O (centres undefined) (cyclo([X1]VA[X1]VA); configuration not given here) | > 23.4 µM | > 23.4 µM | –
CN1CCCC1CCNc1nc(Nc2ccc(Cl)c(Cl)c2)nc2ccc(Cl)cc12 (centres undefined) | > 19.1 µM | 3.24 µM | –
COc1cccc2c1CCc1cc3c(N)nc(N)nc3nc1-2 | > 200 µM | 5.25 µM | –
CSc1nc[nH]c1C(N)=S | > 200 µM | > 200 µM | –
O=C1CCN(CCC(F)(F)C(F)(F)C(F)(F)C(F)(F)F)C(=S)N1 | > 26.3 µM | > 26.3 µM | –
COc1cc(/C=C2\CC/C(=C\c3ccc(O)c(OC)c3)C2=O)ccc1O | > 200 µM | 1.48 µM | –
CC(=O)Oc1ccc(/C=C/C(=O)OCCOC(=O)/C=C/c2ccc(OC(C)=O)c(OC(C)=O)c2)cc1OC(C)=O | > 20 µM | 8.71 µM | –
O=C1OC(C2OC(=O)c3cc(O)c(O)c(O)c3-c3c(O)c(O)c4oc(=O)c5c(c(O)c(O)c6oc(=O)c3c4c65)-c3c(cc(O)c(O)c3O)C(=O)OCC2O)C2OC(=O)c3c(c(O)c(O)c(O)c3C2O)-c2c1cc(O)c(O)c2O (centres undefined) | 1.62 µM | 12 µM | –
COC(=O)c1c(C)cccc1C1CN=NC12Cc1c(C)cccc1C2=O (centres undefined) | 36.3 µM | 72.4 µM | –
O=C1NN(C2=NNC3(C(=O)N2)c2ccccc2-c2ccccc23)C(c2ccccc2)=N/C1=C/c1ccc(O)cc1 | > 100 µM | 66.1 µM | –
O=C1c2ccccc2C(=O)c2c(NCCCNCCO)ccc(NCCCNCCO)c21 | – | – | inactive
CCC12CC[C@H](C#N)N3CCc4c(n(c5ccccc45)C(=O)C1)C32 (some centres undefined) | – | – | inactive
CCOC(=O)CNC(=O)C(Cc1ccccc1)NC(=O)OCc1ccccc1 (centres undefined) (Cbz-[ξF]-Gly-OEt) | > 200 µM | 191 µM | –
O=C(CSc1nnc(Cc2ccccc2)o1)Nc1cccc([N+](=O)[O-])c1 | > 97.7 µM | > 97.7 µM | –
Cc1ccc2c(C3Cc4ccccc4N3C(=O)/C=C\C(=O)O)c(C)[nH]c2c1 (centres undefined) | > 363 µM | 60.3 µM | –
CCCCCCCCCCC[N+]1(Cc2ccccc2)CC2CCN(Cc3ccccc3)CC2C1 (centres undefined) | > 2 µM | 0.234 µM | –
Nc1cc(OCc2ccccc2)c(OCc2ccccc2)cc1C=O | > 200 µM | 18.6 µM | –
C#CCNCC(=O)O | 46.8 µM | > 200 µM | –
CC(C)(C)c1cc(C2COC(=O)COCC(=O)OCCOCCOCCO2)cc(C(C)(C)C)c1O (centres undefined) | > 200 µM | 95.5 µM | –

SMILES | EC50 | IC50 | outcome
COc1cc(C[S+]2CCCC2)c(SC)cc1C[S+]1CCCC1 | > 83.2 µM | > 83.2 µM | –
CC1CCCc2c1n[nH]c2CC1CC(=O)NC(=O)C1 (centres undefined) | > 200 µM | > 200 µM | –
CS(=O)(=O)OCCCSCCSCCCOS(C)(=O)=O | > 676 µM | > 676 µM | –
CCCCCCCCCCSC(=O)NC | – | – | inactive
CC(=O)OC(/C=C/c1ccccc1)=C(OC(C)C)/C1=C(\c2ccccc2)SCCCSC1=O | > 200 µM | > 200 µM | –
COC(=O)C1=C(C)N2CCOC2CC1c1ccccc1 (centres undefined) | > 200 µM | 135 µM | –
CC1CC(Nc2ccc(NC3=CC(=O)OC(C)C3)cc2)=CC(=O)O1 (centres undefined) | > 200 µM | > 200 µM | –
CC(C)(C)OC(=O)NCC(CNC(=O)OC(C)(C)C)c1nc(C(N)=O)cs1 | > 200 µM | > 200 µM | –
CC(=O)OCCC1c2ccccc2-n2nc(-c3ccccc3)c(O)c21 (centres undefined) | > 200 µM | 11.2 µM | –
COc1cc(CC2C(=O)OCC2C(=O)c2ccc3c(c2)OCO3)cc(OC)c1OC (centres undefined) | > 40.7 µM | > 40.7 µM | –
COc1ccc(N=Nc2c(N)nn3cc4c(nc23)CCCCC4)cc1 | > 200 µM | 34.7 µM | –
COC1/C=C/OC2(C)Oc3c(C)c(O)c4c(O)c(c(/C=N/NC5OC(COC(=O)c6ccccc6)C(OC(=O)c6ccccc6)C5OC(=O)c5ccccc5)c(O)c4c3C2=O)NC(=O)C(C)=C/C=C/C(C)C(O)C(C)C(O)C(C)C(OC(C)=O)C1C (centres undefined) | > 200 µM | 14.5 µM | –
Cc1nc(N)sc1C(=O)Nc1ncn[nH]1 | > 200 µM | 117 µM | –
CC1OC(OC2C(O[C@H]3CC[C@@]4(C)C(=CC[C@H]5[C@@H]6C[C@@H]7O[C@]8(CC[C@H](C)CN8)[C@@H](C)[C@@H]7[C@@]6(C)CC[C@@H]54)C3)OC(CO)C(O)C2OC2OC(CO)C(O)C(O)C2O)C(O)C(O)C1O (some centres undefined) | – | – | inactive
Cc1[nH]c2ccccc2c1C1Cc2ccccc2N1C(=O)/C(C#N)=C/c1ccccc1 (centres undefined) | > 12.9 µM | 2.29 µM | –
COC(=O)c1c2c(cc3c1CC1(Cc4cc5c(cc4C1=O)CCC5)C3)CCC2 (centres undefined) | > 200 µM | 52.5 µM | –
CC(C)(C)C1CCC2c3c([nH]c4ccccc34)C3C(=O)N(c4cc(Br)cc(Br)c4)C(=O)C3C2C1 (centres undefined) | > 200 µM | 12.6 µM | –
O=C(Nc1ccccc1)n1cc(-c2ccccn2)c(N2CCOCC2)n1 | > 195 µM | 53.7 µM | –
Cc1ccc(C)c(N=Nc2c(S(=O)(=O)O)cc3cc(NC(=O)Nc4ccc5c(O)c(N=Nc6ccc7cc(S(=O)(=O)O)ccc7c6)c(S(=O)(=O)O)cc5c4)ccc3c2O)c1 | 16.2 µM | > 100 µM | –
O=C(NCCCCCCNC(=O)n1cc(F)c(=O)[nH]c1=O)NC1C(O)OC(CO)C(O)C1O (centres undefined) | – | – | inactive
N#CNc1nc(N)c(-c2ccc(Cl)cc2)c(C(=O)Nc2nccs2)n1 | > 676 µM | > 676 µM | –
